Laboratory results as given in PubChem BioAssay (NCI).
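1) Cells in 96-well plates. 2) Compound, 48 h, 5 concentrations. 3) Linear interpolation between surrounding doses. 4) Unreached endpoint = highest concentration. The concentration for full growth arrest is given as TGI.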 Where a SMILES comes first, the peptide text is derived from it. The star is where a group is joined. Boc = CC(C)(C)OC(=O)*; OSu = O=C1CCC(=O)N1O*

Columns and labels:
Experiment in all cases: NCI-60 cell line screen, 48 h
[1] = system: SK-MEL-28 melanoma
[2] = system: HCC-2998 colon
[3] = system: NCI-H226 lung
[4] = system: HCT-116 colon
[5] = system: SR leukemia
[6] = system: MCF7 breast
[7] = system: HCT-15 colon
[8] = system: HT29 colon
[9] = system: HL-60(TB) leukemia
[10] = system: A498 renal

## CC(NC(=O)C(NC(=O)OC(C)(C)C)C(C)C)C(=O)NCC(=O)ON1C(=O)CCC1=O (stereo not drawn) (Boc-Val-Ala-Gly-OSu; configuration not given here)
[1]
  TGI: > 100 µM
[2]
  TGI: > 100 µM
[3]
  TGI: > 100 µM
[4]
  TGI: > 100 µM
[5]
  TGI: > 100 µM
[6]
  TGI: > 100 µM
[7]
  TGI: > 100 µM
[8]
  TGI: > 100 µM

## Cc1cccc2c(=O)c([Se]c3coc4c(C)cccc4c3=O)coc12
[1]
  TGI: 32.5 µM
[2]
  TGI: 44.8 µM
[3]
  TGI: 33.1 µM
[4]
  TGI: 17.2 µM
[5]
  TGI: 79 µM
[9]
  TGI: > 100 µM
[10]
  TGI: 41 µM
[7]
  TGI: 39.2 µM
[8]
  TGI: 61.7 µM

## COC(=O)C(Cc1c[nH]c2ccccc12)NC(=O)C(Cc1c[nH]c2ccccc12)NC(=O)C(Cc1c[nH]c2ccccc12)NC(=O)C(Cc1c[nH]c2ccccc12)NC(=O)C(Cc1c[nH]c2ccccc12)NC(=O)C(Cc1c[nH]c2ccccc12)NC(=O)OC(C)(C)C (centres undefined) (Boc-WWWWWW-OMe; configuration not given here)
[1]
  TGI: 31.1 µM
[2]
  TGI: > 100 µM
[3]
  TGI: > 100 µM
[4]
  TGI: > 100 µM
[5]
  TGI: > 100 µM
[6]
  TGI: > 100 µM
[9]
  TGI: > 100 µM
[7]
  TGI: > 100 µM
[8]
  TGI: > 100 µM

## O=S(=O)(c1ccccc1)n1c2ccc(Br)cc2c2nc3ccccc3nc21
[1]
  TGI: > 100 µM
[2]
  TGI: > 100 µM
[3]
  TGI: > 100 µM
[4]
  TGI: > 100 µM
[5]
  TGI: > 100 µM
[10]
  TGI: > 100 µM
[7]
  TGI: > 100 µM
[8]
  TGI: > 100 µM

## COC(=O)C1C/C(=C/N(C)C)C(=S)N1 (centres undefined)
[1]
  TGI: > 100 µM
[2]
  TGI: > 100 µM
[4]
  TGI: > 100 µM
[5]
  TGI: > 100 µM
[6]
  TGI: > 100 µM
[10]
  TGI: > 100 µM
[7]
  TGI: > 100 µM
[8]
  TGI: > 100 µM

## N#CCc1n[nH]c(Cc2ccccc2)n1
[1]
  TGI: > 100 µM
[2]
  TGI: > 100 µM
[4]
  TGI: > 100 µM
[5]
  TGI: > 100 µM
[6]
  TGI: > 100 µM
[9]
  TGI: > 100 µM
[10]
  TGI: > 100 µM
[7]
  TGI: > 100 µM
[8]
  TGI: > 100 µM

## Cc1ccsc1/C=N/Nc1nc2ccccc2s1
[1]
  TGI: > 100 µM
[2]
  TGI: > 100 µM
[3]
  TGI: 51.9 µM
[4]
  TGI: 23.2 µM
[6]
  TGI: 36 µM
[10]
  TGI: 19.2 µM
[7]
  TGI: > 100 µM
[8]
  TGI: > 100 µM

## O=C(c1ccc(Cl)cc1)c1ccc(OCCCOc2ccc(C(=O)c3ccc(Cl)cc3)cc2)cc1
[1]
  TGI: > 100 µM
[2]
  TGI: > 100 µM
[3]
  TGI: > 100 µM
[4]
  TGI: > 100 µM
[5]
  TGI: > 100 µM
[9]
  TGI: > 100 µM
[7]
  TGI: > 100 µM
[8]
  TGI: > 100 µM

## Oc1ccc(-c2nc(-c3cccnc3)c(-c3ccc(Cl)cc3)[nH]2)cc1O
[1]
  TGI: 36.2 µM
[2]
  TGI: 26.6 µM
[3]
  TGI: 37.1 µM
[4]
  TGI: 26.7 µM
[5]
  TGI: > 100 µM
[6]
  TGI: 24.2 µM
[9]
  TGI: > 100 µM
[7]
  TGI: 22.2 µM
[8]
  TGI: 27.7 µM

## O=C1c2ccc(O)cc2C(=O)c2ccc(O)cc21
[1]
  TGI: > 100 µM
[2]
  TGI: > 100 µM
[4]
  TGI: > 100 µM
[9]
  TGI: > 100 µM
[10]
  TGI: > 100 µM
[7]
  TGI: > 100 µM
[8]
  TGI: > 100 µM

## COc1cc(C2c3cc4c(cc3[C@@H](Nc3ccccc3)C3COC[C@H]23)OCO4)cc(OC)c1O (some centres undefined)
[1]
  TGI: 39.1 µM
[2]
  TGI: > 100 µM
[4]
  TGI: 19.8 µM
[5]
  TGI: 16.5 µM
[6]
  TGI: > 100 µM
[7]
  TGI: 12.9 µM
[8]
  TGI: 45.5 µM

## CCCCC(C#N)(OP1(=O)OC(c2ccccc2)C(C)N1C)c1ccccc1 (centres undefined)
[1]
  TGI: 31.9 µM
[2]
  TGI: 28.9 µM
[4]
  TGI: 30.4 µM
[5]
  TGI: 43.9 µM
[6]
  TGI: 39 µM
[9]
  TGI: 36 µM
[10]
  TGI: 33.6 µM
[7]
  TGI: 54.8 µM
[8]
  TGI: 33.8 µM
